Data published in paper PMC8404199, “Structure–Activity Relationships of Triple-Action Platinum(IV) Prodrugs with Albumin-Binding Properties and Immunomodulating Ligands” (Journal of Medicinal Chemistry, 2021).

How the values were obtained:
[1] = tested on: phosphorylation of histone H2A.X at position Ser139; assay: pH2AX signal detection in HCT116 cells; format: cell-based, human; conditions: HCT116, 50 µM, 24 h, 5-fold excess AA
Experimental: HCT116 cells were seeded on polytetrafluoroethylene-printed spot slides (E63424-06, Science Services GmbH, Munich, Germany) at a density of 4000 cells/spot. On the next day, cells were exposed to the compounds for 24 h, at 50 μM and fixed in a 4% formaldehyde solution in phosphate-buffered saline (PBS) with a pH adjusted to 7.4 (158127, Merck, Darmstadt, Germany) for 15 min at RT. Spots were washed thrice with PBS each for 5 min, and samples were then incubated in a blocking buffer [PBS, 5% albumin (Carl Roth, Karlsruhe, Germany), 0.3% Triton X-100 (T8787, Merck, Darmstadt, Germany)] for 1 h at RT. […] Next, samples were incubated with rhodamine-labeled wheat germ agglutinin (RL-1022, Vector Laboratories, California, USA) at a concentration for 5 μg/mL for 15 min at RT, and spots were washed twice in PBS, embedded in vectashield mounting medium with DAPI (VECH-1200, Szabo-Scandic, Vienna, Austria), and analyzed using a LSM700 confocal microscope (Zeiss Axio Observer.Z1, inverse, 63× plan-apochromat NA 1.4 Oil DIC objective). […] Images were analyzed using ImageJ software. […] Then, Alexa Fluor 488 signal (integrated density) was measured and normalized to nuclear area.

HCT116 cells = assay: Cell cycle analysis in HCT116 cells; format: cell-based, human; conditions: HCT116, 50 µM, 24 h, 5-fold excess AA
Experimental: The cells were seeded at 600,000 cells/well in six-well plates and allowed to recover for 24 h. On the next day, cells were exposed to the compounds for 24 h, then trypsinized, and collected. Subsequently, cells were washed with PBS and centrifuged (400g, 5 min), and the cell pellet was resuspended in 100 μL of 0.9% NaCl solution. The cell suspension was then added dropwise to 1.8 mL of ice-cold 80% ethanol and incubated for 48 h at −20 °C. The fixated cells were centrifuged (6200g, 2 min), and the cell pellet was diluted in 0.5 mL of PBS with 0.1 mg/mL RNAse A (R5503, Merck, Darmstadt, Germany), which was previously heat-activated (10 min at 96 °C), and samples were incubated for 30 min at 37 °C to remove RNA content. Next, to stain DNA, propidium iodide (81845, Merck, Darmstadt, Germany) at a concentration of 5 μg/mL was added, samples were incubated for 30 min on ice and subsequently measured by flow cytometry.

Treg differentiation = Treg differentiation assay in human PBMC/SKOV3 co-culture; format: cell-based; conditions: 50 μM, 5 days, PBMC from three donors co-cultured with SKOV3
Experimental: PBMCs were thawed and slowly dropped into warm medium at a rate of 1 drop/5 s. PBMCs were then centrifuged (10 min, 400g) and washed with warm AIM V medium (12055091, Thermo Fisher Scientific, Massachusetts, USA). PBMCs were co-cultured with SKOV3 at a ratio of 2:1 (PBMC/SKOV3) in 12-well CytoOne plates (CC7682-7512, Starlab, Hamburg, Germany). In the presence of IL-2 (SRP3085, Merck, Darmstadt, Germany) at a concentration of 80 ng per 10^6, PBMCs were added. To induce Treg differentiation, OKT3 monoclonal CD3 antibody (317302, BioLegend, California, USA) and TGF-β1 CHO (AF-100-21C-10 μg, Eubio, Vienna, Austria) were added at concentrations of 4 μg and 10 ng per 10^6 PBMC, respectively. […] After 3 days, 250 μL of fresh AIM V medium was added, and cells were incubated for another two days. On the day of measurement, supernatant, containing PBMC, was collected.
Cells were washed with PBS and stained using the Aqua Zombie Fixable Viability Kit (423101, BioLegend, California, USA), according to the manufacturer’s instructions. Cells were then stained with fluorescent dye-labeled antibodies, according to the manufacturer’s instructions (Table S7). […] The cleaned up data were analyzed using the gating strategy, as shown in Figure S15 for murine tissue and Figure S16 for human co-culture experiment.

[2] = UHPLC reduction kinetics with dithiothreitol; format: physicochemical; conditions: 1 mM complex, 10 mM DTT, 1% DMF, 500 mM phosphate buffer pH 7.4, 20 °C
Experimental: Figure S 3: Reduction kinetics of reference compounds with AA at 20°C , measured by UHPLC and UV absorption at 220 nm. A: Comparison of OAc/IPAEs with amino -group containing SucCa/IdoEs; B:
Reductive stability of reference compounds with no 1MDT -like ligand. AUC-values were normalized to t = 0. Experimental conditions: 1 mM complex, 10 mM AA in 1% DMF and 500 mM phosphate buffer […]
conditions: 1 mM complex, 10 mM DTT in 1% DMF and 500 mM phosphate buffer (pH 7.4). […]

Row | Structure (SMILES) | pH2A.X signals upon reduction by AA [1] | fraction of cells in G2/M phase upon reduction by AA (HCT116 cells) | Treg differentiation (frequency of Treg in CD4+ T cells) (Treg differentiation) | reduction in the presence of dithiothreitol (in words) [2]
1 | Cn1cc(C[C@@H]([NH3+])C(=O)[O][Pt]2([O]C(=O)CCCCCN3C(=O)CCC3=O)[O]C(=O)C(=O)[O]2)c2ccccc21.N[C@@H]1CCCC[C@H]1N.O=C([O-])C(F)(F)F [SucEs/IdoEs, (OC-6-44)-[(R)-2-Ammonio-3-(1-methyl-1H-indol-3-yl)propanoato][(1R,2R)-1,2-cyclohexanediamino][6-(2,5-dioxopyrrolidin-1-yl)hexanoato]oxalatoplatinum(IV) Trifluoroacetate] | increased pH2A.X signals | increased fraction of cells in the G2/M phase | – | –
2 | Cn1cc(C[C@@H](NC(=O)[O][Pt]2([O]C(=O)CCCCCN3C(=O)CCC3=O)[O]C(=O)C(=O)[O]2)C(=O)O)c2ccccc21.N[C@@H]1CCCC[C@H]1N [SucEs/IdoCa] | – | – | significantly reduced Treg differentiation | –
3 | Cn1cc(CC([NH3+])C(=O)[O][Pt]23([O]C(=O)NCCCCCN4C(=O)CCC4=O)([NH]C4CCCCC4[NH]2)[O]C(=O)C(=O)[O]3)c2ccccc21.O=C([O-])C(F)(F)F [SucCa/IdoEs, (OC-6-34)-[(R)-2-Ammonio-3-(1-methyl-1H-indol-3-yl)propanoato][(1R,2R)-1,2-cyclohexanediamino][5-(2,5-dioxo-2,5-dihydro-1H-pyrrolidin-1-yl)pentylcarbamato]oxalatoplatinum(IV) Trifluoroacetate] | increased pH2A.X signals | increased fraction of cells in the G2/M phase | – | readily reduced
